Earlier results as cited in patent US20240016760A1, “Multivitamin” (priority 2022, published 2024).

Legend:
[1] = test system: CFTR protein; conditions: patients with CF
[2] = molecular target: CFTR Chloride channels (Homo sapiens, UniProt P13569); conditions: increase from zero, at the appropriate concentrations
CFTR Chloride channels, sequence (P13569 whole entry): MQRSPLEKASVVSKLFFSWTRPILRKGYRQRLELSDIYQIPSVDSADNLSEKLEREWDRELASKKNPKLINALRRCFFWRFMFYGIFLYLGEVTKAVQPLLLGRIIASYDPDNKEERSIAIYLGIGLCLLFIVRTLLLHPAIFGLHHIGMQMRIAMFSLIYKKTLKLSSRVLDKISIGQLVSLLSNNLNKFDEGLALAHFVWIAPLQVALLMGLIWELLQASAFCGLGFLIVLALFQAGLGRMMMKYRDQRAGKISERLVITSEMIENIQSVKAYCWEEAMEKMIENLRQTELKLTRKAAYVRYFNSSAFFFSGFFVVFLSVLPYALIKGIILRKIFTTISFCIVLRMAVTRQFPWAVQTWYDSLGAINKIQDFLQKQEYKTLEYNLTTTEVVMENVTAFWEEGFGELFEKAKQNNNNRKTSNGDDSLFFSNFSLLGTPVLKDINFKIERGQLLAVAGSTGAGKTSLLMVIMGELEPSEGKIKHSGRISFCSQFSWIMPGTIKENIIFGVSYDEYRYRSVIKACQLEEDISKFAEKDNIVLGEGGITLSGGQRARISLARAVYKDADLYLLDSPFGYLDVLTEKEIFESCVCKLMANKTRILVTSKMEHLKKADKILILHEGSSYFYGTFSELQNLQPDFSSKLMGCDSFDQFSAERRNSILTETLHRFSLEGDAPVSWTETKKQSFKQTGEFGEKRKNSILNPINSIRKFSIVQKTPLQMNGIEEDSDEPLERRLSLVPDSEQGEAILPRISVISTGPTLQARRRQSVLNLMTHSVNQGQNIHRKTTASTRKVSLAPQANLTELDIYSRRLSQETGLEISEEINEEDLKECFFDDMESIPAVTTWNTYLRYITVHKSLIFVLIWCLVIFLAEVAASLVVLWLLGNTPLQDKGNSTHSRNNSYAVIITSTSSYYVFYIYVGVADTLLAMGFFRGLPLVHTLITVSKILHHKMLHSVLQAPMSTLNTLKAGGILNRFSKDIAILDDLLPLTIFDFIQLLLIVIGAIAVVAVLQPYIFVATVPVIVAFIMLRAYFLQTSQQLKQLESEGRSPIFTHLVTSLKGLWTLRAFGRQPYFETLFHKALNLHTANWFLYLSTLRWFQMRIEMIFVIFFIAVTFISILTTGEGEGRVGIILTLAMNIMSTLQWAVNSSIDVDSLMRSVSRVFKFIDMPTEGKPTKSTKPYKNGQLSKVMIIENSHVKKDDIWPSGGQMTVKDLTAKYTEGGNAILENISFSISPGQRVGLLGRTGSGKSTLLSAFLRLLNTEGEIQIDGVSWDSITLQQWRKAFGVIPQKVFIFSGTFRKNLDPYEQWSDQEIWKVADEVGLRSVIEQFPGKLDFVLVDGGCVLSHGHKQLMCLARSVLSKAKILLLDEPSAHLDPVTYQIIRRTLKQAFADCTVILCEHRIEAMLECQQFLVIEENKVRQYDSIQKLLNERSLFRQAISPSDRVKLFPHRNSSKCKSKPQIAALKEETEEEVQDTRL

Row | average open probability of CFTR Chloride channels [2] | SMILES | average increase in lung function (as measured by FEV1) [1] [%]
1 | – | CC(C)(C)c1cc(C(C)(C)C)c(NC(=O)c2c[nH]c3ccccc3c2=O)cc1O [Ivacaftor, ivacaftor] | ~2
2 | 0.21 (+0.08) | O=C1O[C@H]([C@@H](O)CO)C(O)=C1O [vitamin C] | –
